Results on 2 compounds are retold here after article PMC9041133 (RSC Advances, 2021).

The nature of series [1]: Pharmacokinetic study in healthy volunteers after oral fixed-combination tablet, plasma measured by USA-DMSPE-HPLC-UV. The format is in vivo. Conditions: human; for half-life: read-out: T ½ (converted). As for the experimental part:
First of all, some frozen human plasma samples were allowed to be thawed at room temperature (23 ± 0.5 °C) and afterwards they were placed into centrifuge tubes. Acetonitrile was applied as a deproteinizing agent to precipitate all proteins existing in plasma. In this regard, 1.9 mL of plasma was spiked with 100.0 μL of working standard solutions to get the suitable concentration level of DIC and FEB, then, to all tubes, 2.0 mL acetonitrile was added. All the biological samples were vortexed for 3 min for complete mixing and followed with centrifugation at 5000 rpm for 4 min. For evaporating the acetonitrile content of each real sample, the tube containing the spiked sample was placed under a stream of nitrogen. To adjust the pH of media, 4.0 mL buffer solution at pH 5.0 was added to real sample. Eventually, 5.0 mL of the resultant spiked sample was subjected to the extraction and measurement protocols for further evaluations.
5.0 mL of the prepared spiked human plasma was placed into a centrifuge tube and then 20.0 mg of synthesized hybrid sorbent was added to the tube. For ensuring the complete dispersion of the supermagnetic hybrid sorbent into the solution, ultrasonic irradiation was utilized for 6 min. As the sorbent is dispersed through the sample, the target drugs are adsorbed on the surface of it. Subsequently, an external magnetic field composed of neodymium (Nd), iron (Fe) and boron (B) (0.8 tesla) was applied to separate the hybrid sorbent from media and the free drug sample was removed by a pipette. In order to desorb the target drugs from the extractor, it was washed with 1.5 mL with acetonitrile in three steps (0.5 mL in each step) while ultrasonic irradiation was applied for 3 min. Nd-Fe-B-Nd magnet was used again in this step and then the solution was separated and dried under a stream of nitrogen. After collecting the remaining material, which contains DIC and FEB, was dissolved in 50.0 μL of the mobile phase of HPLC and 20.0 μL of it was injected into the separation column and further measurements were carried out.
The volunteer's blood were collected after 0 to 4 and 8, 12 and 24 h of taking the drug and the samples were transferred to the polypropylene tubes containing ethylenediaminetetraacetic acid and centrifuged to achieve the required human plasma, after that the samples were kept at −18 °C. […] The samples were analyzed by means of the current method and the average concentration of each drug versus time was drawn. In this assessment, some major pharmacokinetic features including Tmax, Cmax, AUC0–t, AUC0–∞, and T½ were calculated and the results were summarized in Table 3.

Details of series [2]: method as in doi:10.1016/j.microc.2019.03.022, PMID 28953473. Conditions: reported values; cited from earlier work.

What is called Tmax is the time from dosing to the highest level. What is called pKa is the negative logarithm of the acid dissociation constant.

In the case of `O=C(O)Cc1ccccc1Nc1c(Cl)cccc1Cl` [Diclofenac, 2-(2,6-dichloranilino)phenylacetic acid], in series [1], the Tmax came out at 2.88 ± 0.3 h and the half-life is 5.1 ± 1.1 h.

On to `Cc1nc(-c2ccc(OCC(C)C)c(C#N)c2)sc1C(=O)O` [Febuxostat, 2-(3-cyano-4-isobutoxyphenyl)-4-methyl-1,3-thiazole-5-carboxylic acid], for which, in series [1], the Tmax was determined as 3.15 ± 0.27 h and the half-life was 6.3 ± 1.5 h. Also, the pKa in series [2] was 3.3.
